How the values were obtained:
Kunming mice = settings: tail vein injection; for Median effective dose (ED50): disappearance of FRR; for disappearance time of FRR (onset time) / recovery time (recovery of FRR): during the determination of ED50; for anesthetic effect: in words
Protocol: Median effective doses (ED50) of propofol hydroxybutyrate phosphate disodium salt and Diprivan™ were determined by the up-and-down method. In the test, the mice were injected with the drugs through the tail veins, with the disappearance of the forepaw righting reflex (FRR) of the mice as a judgment index of the end point of anesthesia; the recovery of FRR of the mice as an index of recovery from anesthesia.
In the test, the mice were injected with the drugs through the tail veins, with the disappearance of the forepaw righting reflex (FRR) of the mice as a judgment index of the end point of anesthesia; the recovery of FRR of the mice as an index of recovery from anesthesia.

[1] = in words, prior-art prodrug of WO200213810; cited from earlier work
[2] = in words, prior-art prodrug of WO200213810; cited from earlier work; remark: listed apart in the source

| Compound | Median effective dose (ED50) (Kunming mice) [mg/kg] | disappearance time of FRR (onset time) (Kunming mice) [s] | recovery time (recovery of FRR) (Kunming mice) [s] | anesthetic effect (Kunming mice) | water solubility [1] | stability in aqueous solution [2] |
| --- | --- | --- | --- | --- | --- | --- |
| propofol w-hydroxybutyrate phosphate disodium salt | 130 | 150.6 ± 42.1 | 480.6 ± 124.3 | definite and reversible anesthetic effect | – | – |
| CC(C)c1cccc(C(C)C)c1OC(=O)CCC(=O)[O-].[Na+] [propofol succinic acid monoester sodium salt] | – | – | – | – | high water-solubility | unstable in aqueous solution |
| propofol w-hydroxyvalerate phosphate disodium salt | 152 | 180.8 ± 45.6 | 500.1 ± 114.6 | definite and reversible anesthetic effect | – | – |

Reference: US9243009B2, “Phosphate ester compound of hydroxy acid substituted phenol ester, preparation method and medical use thereof” (West China Hospital, Sichuan University, priority 2010, dated 2016)
